{
  "source": "patent US5444073A",
  "about": "“Method for treating memory impairment” (H. Lundbeck A/S, priority 1991, dated 1995)",
  "data": [
    {"test": "Catalepsy test (rat on a vertical wire mesh, s.c.)", "conditions": "Cataleptic Activity, maximum within the first 6 hours", "experimental": "Test compound is given s.c. in different doses. The rat (170-240 g) is placed on a vertical wire mesh (mesh-diameter 12 mm). The rat is considered cataleptic if it remains immobile for more than 15 sec. The maximum number of rats showing catalepsy within the first 6 hours is recorded for each dose group. The results are recorded in fractions and an ED50 value is calculated by means of log-probit analysis.", "units": {"ED50(s.c.)": "µmol/kg"}, "values": [
      {"compound": "O=C1NCCN1CCN1CC=C(c2cn(-c3ccc(F)cc3)c3ccc(C(F)(F)F)cc23)CC1", "note": "[Comp. A, 1-(4-Fluorophenyl)-3-[1-[2-(2-imidazolidinon-1-yl)ethyl]-1,2,3,6-tetrahydropyridin-4-yl]-5-trifluoromethyl-1H-indole]", "ED50(s.c.)": 0.49},
      {"compound": "O=C(O)/C=C/C(=O)O.O=C1CCCN1CCN1CCC(c2cn(-c3ccc(F)cc3)c3ccc(Cl)cc23)CC1", "note": "[Comp. No 4, 5-chloro-1-(4-fluorophenyl)-3-[1-[2-(2-pyrrolidinon-1-yl)ethyl]-4-piperidyl]-1H-indole, fumarate]", "ED50(s.c.)": 23},
      {"compound": "5-Chloro-1-(4-fluorophenyl)-3-[4-[2-(2-imidazolidinon-1-yl)ethyl]-12,3,6-tetrahydropyridin-4-yl]-5-trifluoromethyl-1H-indole [Comp. C]", "ED50(s.c.)": 4.5},
      {"compound": "CN1CCN(CCN2CCC(c3cn(-c4ccc(F)cc4)c4ccc(Cl)cc34)CC2)C1=O.O=C(O)/C=C/C(=O)O", "note": "[Comp. No 3, 5-chloro-1-(4-fluorophenyl)-3-[1-[2-(3-methyl-2-imidazolidinon-1-yl)ethyl]4-piperidyl]-1H-indole, fumarate]", "ED50(s.c.)": 31},
      {"compound": "5-Chloro-1-(4-fluorophenyl)-3-[1-[2-(2-imidazolidinon-1-yl)ethyl]-1,2,3,6-tetrahydropyridin-4-yl]-5-trifluoromethyl-1H-indole [Comp. B]", "ED50(s.c.)": 2.2}
    ]}
  ]
}
